In patent US9701650B2, “Derivatives of sobetirome” (OREGON HEALTH & SCIENCE UNIVERSITY, priority 2015, dated 2017):
One block for each molecule: values may come before it.

Legend:
[1] = single time point biodistribution study in mice (brain, liver, serum sobetirome 30 minutes after ip administration, LC-MS/MS); format: in vivo; details: for CNS distribution of sobetirome (in words): ip administration of prodrug, versus sobetirome; for brain sobetirome levels compared to equimolar systemic injection of sobetirome / liver sobetirome levels compared to direct sobetirome injection / serum sobetirome levels compared to direct sobetirome injection: sobetirome measured
Method: A biodistribution study in mice was performed on each prodrug to determine the brain, liver, and serum levels of sobetirome following a systemic (intraperitoneal) administration. The mice received an equimolar dose (1.5 μmol/kg) of prodrug and one cohort received the same dose of sobetirome as a control. Tissue and blood were collected 30 minutes post-injection and the concentration of sobetirome was determined using an LC-MS/MS. […] The brain/liver sobetirome ratio was increased compared to sobetirome injection by 5- and 10-fold for 11 and 15, respectively (FIG. 1C)
(§1) Animal Studies: Experimental protocols were in compliance with the National Institutes of Health Guide for the Care and Use of Laboratory Animals and approved by the Oregon Health & Science University Institutional Animal Care & Use Committee. Wild type male C57Bl/6 mice, aged 8-10 weeks, were housed in a climate controlled room with a 12 hour light-dark cycle with ad libitum access to food and water. Mice were injected once intraperitoneally (IP) with sobetirome and prodrugs at 3.05 μmol/kg. Euthanasia was performed on three mice per time points at the following times (0.15 h, 0.5 h, 1 h, 2 h, 4 h, and 8 h) and the tissues and blood were harvested. Tissues were immediately frozen and blood was kept on ice for a minimum of 30 minutes and then spun down at 7,500×G for 15 minutes. Serum (100 uL) was collected and was stored with tissues at −80° C. until samples were processed.
(§2) Serum Processing: The serum samples were warmed to room temperature and 10 μL of 2.99 μM internal standard (D6-Sobetirome) was added to them. Acetonitrile (500 μL) was added and the sample was vortexed for 20 seconds. The sample was then centrifuged at 10,000×G for 15 minutes at 4° C. Next, 90% of the upper supernatant was transferred to a glass test tube and concentrated using a speedvac for 1.5 hours at 45° C. The dried sample was then dissolved in 400 μL of 50:50 ACN:H2O and vortexed for 20 seconds. The resulting mixture was transferred to an Eppendorf and centrifuged at 10,000×G for 15 minutes. The supernatant was filtered with 0.22 μM centrifugal filters and submitted for LC-MS/MS analysis. The standard curve was made with 100 μL of serum from an 8-10 week old mouse not injected with Sobetirome or prodrug. The processing was performed exactly the same except after filtering the sample was split amongst 6 vials. To 5 out of the 6 vials was added Sobetirome to make final concentrations in matrix of (0.1 pg/μL, 1 pg/μL, 10 pg/μL, 100 pg/μL, and 1000 pg/μL).
(§3) Brain Processing: The brain samples were warmed to room temperature and transferred to a homogenizer tube with 5 GoldSpec ⅛ chrome steel balls (Applied Industrial Technologies). The resulting tube was weighed and then 1 mL of H2O was added, followed by 10 μL of 2.99 μM internal standard (D6-sobetirome). The tube was homogenized with a Bead Bug® for 30 seconds and then transferred to a Falcon tube containing 3 mL of ACN. ACN (1 mL) was used to wash homogenizer tube and the solution was transferred back to the Falcon tube. The sample was then processed using the same method for the serum processing except the sample was concentrated in a glass tube using a speedvac for 4 hours at 45° C.
(§4) Liver Processing: The liver samples were warmed to room temperature and transferred to a homogenizer tube with 5 GoldSpec ⅛ chrome steel balls (Applied Industrial Technologies). The resulting tube was weighed and then 1 mL of H2O was added, followed by 10 μL of 2.99 μM internal standard (D6-Sobetirome). The tube was then homogenized with a Bead Bug for 30 seconds. A small sample (100 μL) was then taken from the homogenized mixture and processed. This was done because the liver levels found in some samples were too high for the LC-MS/MS instrument. The samples were then processed using the serum processing method.

[2] = 8-hour time course distribution study in mice (sobetirome in brain, liver, serum after ip administration); format: in vivo; details: for AUC0-->t of sobetirome: ip 1.5 μmol/kg, 8 hour time course
Excerpt: (§5) The single time point pilot study was followed up for 11 and 15 vs. sobetirome with an 8-hour time course distribution study in mice. […] The sobetirome AUC, Cmax, and Tmax values in brain, liver and serum resulting from systemic administration of sobetirome, prodrug 11, and prodrug 15 are shown in Table 1 and the curves used to obtain these values are shown in FIGS. 2A, 2B and 2C.
as §1, with “Mice were injected once intraperitoneally (IP) with sobetirome and prodrugs at 3.05 μmol/kg.” left out
as §2, §3, §4

[3] = pharmacokinetic study of sobetirome in mice (t1/2); details: mouse, in vivo
Excerpt: as §5

[4] = ip 1.5 μmol/kg, 30 minutes post-injection
[5] = male, C57Bl/6, mouse, in vivo, ip

SMILES: Cc1cc(OCC(=O)OCC[N+](C)(C)C)cc(C)c1Cc1ccc(O)c(C(C)C)c1.[Br-] [Compound 8, 2-(trimethylamino)ethyl 2-(4-{[4-hydroxy-3-(propan-2-yl)phenyl]methyl}-3,5-dimethylphenoxy)acetate hydrobromide]
- CNS distribution of sobetirome (in words) [1]: did not improve CNS distribution of sobetirome

SMILES: Cc1cc(OCC(=O)OCCN)cc(C)c1Cc1ccc(O)c(C(C)C)c1.Cl [Compound 11, GC1-ethanolamine]
- sobetirome exposure in brain compared to direct sobetirome injection ([2]; mice, full time course): increased sobetirome exposure
- sobetirome exposure in liver compared to direct sobetirome injection ([2]; mice, full time course): decreased sobetirome exposure
- sobetirome exposure in serum compared to direct sobetirome injection ([2]; mice, full time course): decreased sobetirome exposure
- brain sobetirome levels compared to equimolar systemic injection of sobetirome [1, 4]: significant brain sobetirome level increases
- liver sobetirome levels compared to direct sobetirome injection [1, 4]: significantly lower
- serum sobetirome levels compared to direct sobetirome injection [1, 4]: significantly lower
- CNS distribution of sobetirome (in words) [1]: improved CNS distribution

SMILES: Cc1cc(OCC(=O)O)cc(C)c1Cc1ccc(O)c(C(C)C)c1 [Sobetirome]
- AUC0-->t of sobetirome ([2]; mouse brain): 10.8 ng·h/g
- AUC0-->t of sobetirome ([2]; mouse liver): 293 ng·h/g
- AUC0-->t of sobetirome ([2]; mouse serum): 68.2 ng·h/g
- half-life [3]: 1.5 h

Further lines, with some results ahead:

- brain/serum ratio of sobetirome (in words) [1, 4]: did not significantly increase
- brain sobetirome levels compared to equimolar systemic injection of sobetirome [1, 4]: did not significantly increase
SMILES: Cc1cc(OCC(=O)OCCN2CCOCC2)cc(C)c1Cc1ccc(O)c(C(C)C)c1 [Compound 9, 2-(morpholin-4-yl)ethyl 2-(4-{[4-hydroxy-3-(propan-2-yl)phenyl]methyl}-3,5-dimethylphenoxy)acetate]

- Sobetirome Distribution AUCbrain/AUCliver [2, 5]: 0.20
- Sobetirome Distribution AUCbrain/AUCserum [2, 5]: 1.3
- brain/serum ratio of sobetirome based on AUC [2, 5]: 1.31
- sobetirome exposure in brain compared to direct sobetirome injection ([2]; mouse, in vivo): increased sobetirome exposure
- sobetirome exposure in liver compared to direct sobetirome injection ([2]; mouse, in vivo): decreased sobetirome exposure
- sobetirome exposure in serum compared to direct sobetirome injection ([2]; mouse, in vivo): decreased sobetirome exposure
- CNS distribution properties compared to 11 ([2]; mouse, in vivo, ip): superior CNS distribution properties
- increase in sobetirome AUC(brain)/AUC(liver) relative to sobetirome ([2]; mouse, in vivo, ip): five-fold increase
- time to reach Cmax ([2]; mouse, in vivo, ip): 1 h
- liver sobetirome levels compared to direct sobetirome injection [1, 4]: significantly lower
- serum sobetirome levels compared to direct sobetirome injection [1, 4]: significantly lower
- CNS distribution of sobetirome (in words) [1]: improved CNS distribution
SMILES: Cc1cc(OCC(=O)OC2CNC2)cc(C)c1Cc1ccc(O)c(C(C)C)c1 [Compound 15, azetidin-3-yl 2-(4-{[4-hydroxy-3-(propan-2-yl)phenyl]methyl}-3,5-dimethylphenoxy)acetate]
- brain sobetirome levels compared to equimolar systemic injection of sobetirome [1, 4]: significant brain sobetirome level increases
